Results taken from US20260325533A1, “CDK INHIBITOR COMPOUNDS” (ALEKSIA THERAPEUTICS, INC., priority 2023, published 2026).
Like-named read-outs stand apart in the source and are kept apart here.

How the values were obtained:
Assay type in all cases: biochemical
[1] = target: CDK6/CCND1 (Homo sapiens, UniProt Q00534); experiment: CDK6 homogeneous time-resolved fluorescence (HTRF) kinase assay; settings: CDK6/CCND
In short: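 1 nM enzyme, 1 mM ATP, 50 nM ULight-4E-BP1 (Thr37/46) peptide, 1% DMSO; 20 min compound preincubation, 60 min reaction, 23 °C. EDTA stop, 2 nM Eu-anti-phospho-4E-BP1 antibody 60 min. TR-FRET 665 nm (or 665/615 ratio); IC50 from 11-point half-log titration, top 10 μM.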

[2] = target: CDK2/CCNE1 (Homo sapiens, UniProt P24941); experiment: CDK2 homogeneous time-resolved fluorescence (HTRF) kinase assay; settings: CDK2/CCNE
In short: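 Compounds were titrated 11-point, half-log from typically 10 μM against 3 nM CDK2/cyclin E1 at 1 mM ATP, with a 20 min enzyme preincubation. Phosphorylation of 50 nM ULight-4E-BP1 peptide over 60 min at 23 °C was detected by europium anti-phospho antibody TR-FRET.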

[3] = target: CDK1/CCNB1 (Homo sapiens, UniProt P06493); experiment: CDK1 homogeneous time-resolved fluorescence (HTRF) kinase assay; settings: CDK1/CCNB
CDK1/CCNB1, sequence (P06493 whole entry): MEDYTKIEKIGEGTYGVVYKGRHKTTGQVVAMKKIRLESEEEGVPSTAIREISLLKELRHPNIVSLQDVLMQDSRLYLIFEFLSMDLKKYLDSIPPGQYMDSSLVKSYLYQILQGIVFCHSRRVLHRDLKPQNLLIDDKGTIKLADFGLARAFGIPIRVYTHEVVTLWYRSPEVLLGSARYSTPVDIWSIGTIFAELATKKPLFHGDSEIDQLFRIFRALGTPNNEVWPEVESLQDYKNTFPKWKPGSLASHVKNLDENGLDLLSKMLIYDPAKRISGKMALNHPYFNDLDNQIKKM
CDK1/CCNB1, sequence (P14635 whole entry partner): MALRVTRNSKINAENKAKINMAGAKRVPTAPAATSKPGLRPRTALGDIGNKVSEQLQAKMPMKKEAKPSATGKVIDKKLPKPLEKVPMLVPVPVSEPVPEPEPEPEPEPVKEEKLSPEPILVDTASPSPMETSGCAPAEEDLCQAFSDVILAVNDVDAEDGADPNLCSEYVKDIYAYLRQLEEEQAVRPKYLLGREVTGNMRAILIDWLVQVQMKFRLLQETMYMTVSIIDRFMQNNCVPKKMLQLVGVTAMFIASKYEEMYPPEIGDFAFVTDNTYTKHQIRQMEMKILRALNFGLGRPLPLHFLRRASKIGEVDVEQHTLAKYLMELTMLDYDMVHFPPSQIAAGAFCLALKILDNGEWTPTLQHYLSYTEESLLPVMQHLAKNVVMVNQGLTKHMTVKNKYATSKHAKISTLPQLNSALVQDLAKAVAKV
In short: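 HTRF assay with 0.5 nM CDK1/CCNB1, 1 mM ATP, 50 nM ULight-eIF4E-BP1 (Thr37/46) peptide; compound preincubated 20 min, reaction 60 min at 23 °C, EDTA stop, Eu-anti-phospho antibody detection. 11-point half-log titration from 10 μM, 1% DMSO; IC50 from 665 nm or 665/615 signal.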

[4] = target: CDK4/CCND3 (Homo sapiens, UniProt P11802); experiment: CDK4 homogeneous time-resolved fluorescence (HTRF) kinase assay; settings: CDK4/CCND
CDK4/CCND3, sequence (P11802 whole entry): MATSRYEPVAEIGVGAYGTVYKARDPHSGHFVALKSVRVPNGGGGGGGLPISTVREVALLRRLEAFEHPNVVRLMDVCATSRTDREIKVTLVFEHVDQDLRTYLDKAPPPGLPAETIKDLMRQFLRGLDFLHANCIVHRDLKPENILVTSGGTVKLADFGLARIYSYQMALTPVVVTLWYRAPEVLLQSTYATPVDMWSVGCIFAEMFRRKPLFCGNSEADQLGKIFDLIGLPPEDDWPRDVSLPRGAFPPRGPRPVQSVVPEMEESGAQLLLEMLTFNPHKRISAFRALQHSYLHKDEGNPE
CDK4/CCND3, sequence (P30281 whole entry partner): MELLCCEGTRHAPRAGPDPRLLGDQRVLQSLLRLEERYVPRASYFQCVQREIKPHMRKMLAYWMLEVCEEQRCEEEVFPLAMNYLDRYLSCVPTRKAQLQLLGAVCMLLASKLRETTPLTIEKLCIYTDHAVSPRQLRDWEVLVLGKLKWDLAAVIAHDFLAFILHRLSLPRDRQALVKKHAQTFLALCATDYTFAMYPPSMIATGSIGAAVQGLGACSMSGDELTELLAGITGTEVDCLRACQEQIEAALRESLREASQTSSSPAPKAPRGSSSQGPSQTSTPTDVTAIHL
In short: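 Inhibition of CDK4/CCND3 (1.5 nM) was measured at high ATP (1 mM) using 50 nM ULight-labelled 4E-BP1 Thr37/46 peptide; detection used 2 nM europium anti-phospho antibody after EDTA quench. IC50 values came from 11-point half-log titrations typically starting at 10 μM.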

[5] = x = IC50 25-250 nM, read-out: CDK6/CCND IC50 (25-250 nM)
[6] = x = IC50 <25 nM, read-out: CDK2/CCNE IC50 (<25 nM)
[7] = x = IC50 25-250 nM, read-out: CDK1/CCNB IC50 (25-250 nM)
[8] = x = IC50 25-250 nM, read-out: CDK4/CCND IC50 (25-250 nM)
[9] = x = IC50 >250 nM, read-out: CDK6/CCND IC50 (>250 nM column)
[10] = x = IC50 >250 nM, read-out: CDK1/CCNB IC50 (>250 nM column)
[11] = x = IC50 >250 nM, read-out: CDK4/CCND IC50 (>250 nM column)
[12] = x = IC50 25-250 nM, read-out: CDK2/CCNE IC50 (25-250 nM)

CDK6/CCND1, sequence (Q00534 whole entry): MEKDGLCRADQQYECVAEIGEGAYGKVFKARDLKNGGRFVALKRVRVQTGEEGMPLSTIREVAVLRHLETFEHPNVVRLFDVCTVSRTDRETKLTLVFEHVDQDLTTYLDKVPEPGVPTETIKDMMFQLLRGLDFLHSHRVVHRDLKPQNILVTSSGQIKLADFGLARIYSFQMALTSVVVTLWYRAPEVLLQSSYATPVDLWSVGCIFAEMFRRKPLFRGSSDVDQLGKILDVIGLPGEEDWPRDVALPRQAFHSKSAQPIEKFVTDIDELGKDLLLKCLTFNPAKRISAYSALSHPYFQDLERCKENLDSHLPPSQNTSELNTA
CDK6/CCND1, sequence (P24385 whole entry partner): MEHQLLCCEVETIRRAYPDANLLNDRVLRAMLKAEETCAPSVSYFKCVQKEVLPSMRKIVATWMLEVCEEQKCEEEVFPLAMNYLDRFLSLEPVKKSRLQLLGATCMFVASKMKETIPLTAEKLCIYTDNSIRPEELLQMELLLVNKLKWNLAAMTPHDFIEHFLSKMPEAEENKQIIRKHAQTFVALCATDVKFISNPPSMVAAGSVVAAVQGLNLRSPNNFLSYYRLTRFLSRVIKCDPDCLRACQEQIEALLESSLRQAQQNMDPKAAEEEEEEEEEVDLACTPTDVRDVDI

Structure (SMILES) | IC50 [1, 5] | IC50 [2, 6] | IC50 [3, 7] | IC50 [4, 8] | IC50 [1, 9] | IC50 [3, 10] | IC50 [4, 11] | IC50 [2, 12]
CCS(=O)(=O)c1ccc(Nc2cc3c(C#Cc4ccc5c(c4)NC(=O)C54CC4)nccc3cn2)cc1 [Ex 397, 6'-((7-((4-(ethylsulfonyl)phenyl)amino)-2,6-naphthyridin-1-yl)ethynyl)spiro[cyclopropane-1,3'-indolin]-2'-one] | 25 to 250 nM | < 25 nM | 25 to 250 nM | 25 to 250 nM |  |  |  | 
Nc1ncccc1C#Cc1nccc2cnc(Nc3ccc(S(=O)(=O)C4CC4)cc3)cc12 [Ex 399, 5-((2-aminopyridin-3-yl)ethynyl)-N-(4-(cyclopropylsulfonyl)phenyl)-2,6-naphthyridin-3-amine] |  | < 25 nM |  |  | > 250 nM | > 250 nM | > 250 nM | 
CC(C)S(=O)(=O)c1ccc(Nc2cc3c(C#Cc4cccnc4N)nccc3cn2)cc1 [Ex 400, 5-((2-aminopyridin-3-yl)ethynyl)-N-(4-(isopropylsulfonyl)phenyl)-2,6-naphthyridin-3-amine] |  |  |  |  | > 250 nM | > 250 nM | > 250 nM | 25 to 250 nM
CCS(=O)(=O)c1ccc(Nc2cc3c(C#Cc4cccnc4N)nccc3cn2)cc1 [Ex 401, 5-((2-aminopyridin-3-yl)ethynyl)-N-(4-(ethylsulfonyl)phenyl)-2,6-naphthyridin-3-amine] |  | < 25 nM |  |  | > 250 nM | > 250 nM | > 250 nM | 
CCS(=O)(=O)c1ccc(Nc2cc3c(C#Cc4ccc5c(c4)NC(=O)C54CCC4)nccc3cn2)cc1 [Ex 405, 6'-((7-((4-(ethylsulfonyl)phenyl)amino)-2,6-naphthyridin-1-yl)ethynyl)spiro[cyclobutane-1,3'-indolin]-2'-one] |  | < 25 nM | 25 to 250 nM |  | > 250 nM |  | > 250 nM | 
CC1(C)C(=O)Nc2cc(C#Cc3nccc4cnc(Nc5ccc(S(C)(=O)=O)c(Cl)c5)cc34)ccc21 [Ex 407, 6-((7-((3-chloro-4-(methylsulfonyl)phenyl)amino)-2,6-naphthyridin-1-yl)ethynyl)-3,3-dimethylindolin-2-one] |  |  |  |  | > 250 nM | > 250 nM | > 250 nM | 25 to 250 nM
CCC1(CC)C(=O)Nc2cc(C#Cc3nccc4cnc(Nc5ccc(S(=O)(=O)C6CCC6)cc5)cc34)ccc21 [Ex 409, 6-((7-((4-(cyclobutylsulfonyl)phenyl)amino)-2,6-naphthyridin-1-yl)ethynyl)-3,3-diethylindolin-2-one] |  | < 25 nM |  |  | > 250 nM | > 250 nM | > 250 nM | 
CS(=O)(=O)c1ccc(Nc2cc3c(C#Cc4cccnc4N)nccc3cn2)c(F)c1 [Ex 418, 5-((2-aminopyridin-3-yl)ethynyl)-N-(2-fluoro-4-(methylsulfonyl)phenyl)-2,6-naphthyridin-3-amine] |  |  |  |  | > 250 nM | > 250 nM | > 250 nM | 25 to 250 nM
CS(=O)(=O)c1ccc(Nc2cc3c(C#Cc4cccnc4N)nccc3cn2)nc1 [Ex 419, 5-((2-aminopyridin-3-yl)ethynyl)-N-(5-(methylsulfonyl)pyridin-2-yl)-2,6-naphthyridin-3-amine] |  |  |  |  | > 250 nM | > 250 nM | > 250 nM | 25 to 250 nM
Cc1cc(S(C)(=O)=O)ccc1Nc1cc2c(C#Cc3cccnc3N)nccc2cn1 [Ex 420, 5-((2-aminopyridin-3-yl)ethynyl)-N-(2-methyl-4-(methylsulfonyl)phenyl)-2,6-naphthyridin-3-amine] |  |  |  |  | > 250 nM | > 250 nM | > 250 nM | 25 to 250 nM
CC1(C)C(=O)Nc2cc(C#Cc3nccc4cnc(Nc5ccc(S(C)(=O)=O)c(F)c5)cc34)ccc21 [Ex 422, 6-((7-((3-fluoro-4-(methylsulfonyl)phenyl)amino)-2,6-naphthyridin-1-yl)ethynyl)-3,3-dimethylindolin-2-one] |  | < 25 nM |  |  | > 250 nM | > 250 nM | > 250 nM | 
CC1(C)C(=O)Nc2cc(C#Cc3nccc4cnc(Nc5ccc(S(C)(=O)=O)cc5Cl)cc34)ccc21 [Ex 423, 6-((7-((2-chloro-4-(methylsulfonyl)phenyl)amino)-2,6-naphthyridin-1-yl)ethynyl)-3,3-dimethylindolin-2-one] |  | < 25 nM |  |  | > 250 nM | > 250 nM | > 250 nM | 
Cc1cc(S(C)(=O)=O)ccc1Nc1cc2c(C#Cc3ccc4c(c3)NC(=O)C4(C)C)nccc2cn1 [Ex 424, 3,3-dimethyl-6-((7-((2-methyl-4-(methylsulfonyl)phenyl)amino)-2,6-naphthyridin-1-yl)ethynyl)indolin-2-one] |  | < 25 nM | 25 to 250 nM |  | > 250 nM |  | > 250 nM | 
CC1(C)C(=O)Nc2cc(C#Cc3nccc4cnc(Nc5ccc(S(C)(=O)=O)nc5)cc34)ccc21 [Ex 425, 3,3-dimethyl-6-((7-((6-(methylsulfonyl)pyridin-3-yl)amino)-2,6-naphthyridin-1-yl)ethynyl)indolin-2-one] |  |  |  |  | > 250 nM | > 250 nM | > 250 nM | 25 to 250 nM
CCC1(CC)C(=O)Nc2cc(C#Cc3nccc4cnc(Nc5ccc(S(=O)(=O)C(C)C)cc5)cc34)ccc21 [Ex 429, 3,3-diethyl-6-((7-((4-(isopropylsulfonyl)phenyl)amino)-2,6-naphthyridin-1-yl)ethynyl)indolin-2-one] |  | < 25 nM |  |  | > 250 nM | > 250 nM | > 250 nM | 
CCC1(CC)C(=O)Nc2cc(C#Cc3nccc4cnc(Nc5ccc(S(=O)(=O)CC)cc5)cc34)ccc21 [Ex 430, 3,3-diethyl-6-((7-((4-(ethylsulfonyl)phenyl)amino)-2,6-naphthyridin-1-yl)ethynyl)indolin-2-one] |  | < 25 nM |  |  | > 250 nM | > 250 nM | > 250 nM | 
CN1CCC(NS(=O)(=O)c2ccc(Nc3cc4c(C#Cc5cccnc5N)nccc4cn3)cc2)CC1 [Ex 432, 4-((5-((2-aminopyridin-3-yl)ethynyl)-2,6-naphthyridin-3-yl)amino)-N-(1-methylpiperidin-4-yl)benzenesulfonamide] | 25 to 250 nM | < 25 nM | 25 to 250 nM | 25 to 250 nM |  |  |  | 
Nc1ncccc1C#Cc1nccc2cnc(Nc3ccc(S(=O)(=O)NC4CCNCC4)cc3)cc12 [Ex 433, 4-((5-((2-aminopyridin-3-yl)ethynyl)-2,6-naphthyridin-3-yl)amino)-N-(piperidin-4-yl)benzenesulfonamide] | 25 to 250 nM | < 25 nM | 25 to 250 nM | 25 to 250 nM |  |  |  | 
Nc1ncccc1C#Cc1nccc2cnc(Nc3ccc(S(=O)(=O)NC4CCOCC4)cc3)cc12 [Ex 434, 4-((5-((2-aminopyridin-3-yl)ethynyl)-2,6-naphthyridin-3-yl)amino)-N-(tetrahydro-2H-pyran-4-yl)benzenesulfonamide] |  | < 25 nM |  |  | > 250 nM | > 250 nM | > 250 nM | 
Nc1ncccc1C#Cc1nccc2cnc(Nc3ccc(S(=O)(=O)NC4CC4)cc3)cc12 [Ex 435, 4-((5-((2-aminopyridin-3-yl)ethynyl)-2,6-naphthyridin-3-yl)amino)-N-cyclopropylbenzenesulfonamide] |  | < 25 nM | 25 to 250 nM |  | > 250 nM |  | > 250 nM | 
CC1(C)C(=O)Nc2cc(C#Cc3nccc4cnc(Nc5ccc(S(C)(=O)=O)cn5)cc34)ccc21 [Ex 439, 3,3-dimethyl-6-((7-((5-(methylsulfonyl)pyridin-2-yl)amino)-2,6-naphthyridin-1-yl)ethynyl)indolin-2-one] |  | < 25 nM | 25 to 250 nM |  | > 250 nM |  | > 250 nM | 
COc1cc(S(C)(=O)=O)ccc1Nc1cc2c(C#Cc3ccc4c(c3)NC(=O)C4(C)C)nccc2cn1 [Ex 440, 6-((7-((2-methoxy-4-(methylsulfonyl)phenyl)amino)-2,6-naphthyridin-1-yl)ethynyl)-3,3-dimethylindolin-2-one] |  | < 25 nM |  |  | > 250 nM | > 250 nM | > 250 nM | 
